The source of these data is patent US20080039434A1, “Treatment of Interstitial Cystitis with Vitamin D Compounds” (BioXell S. p.A., priority 2004, published 2008).

Data set [1] relates to MMCP1 protein. In words: Serum level of mast-cell derived chymase MMCP1 protein, allergic IC in mice. The data set is classed as in vivo, mouse. On the procedure:
(§1) Mice (BALB/c, females 8 weeks old, weight 18-20 g, Charles River, Calco ITA) were sensitized by injecting 10 ug/mouse of chicken ovalbumin from Sigma (OVA, grade V) in the presence of 4 mg of alum (SERVA, Germany) by intraperitoneal injection, once a week for 4 weeks. This induces a sustained level of IgE detectable in serum.
(§2) One or two weeks after the last immunization boost, sensitized mice were anesthetized (1.5% Isoflurane) and then trans-urethrally catheterized (24 gauge, ¾ in.; Angiocath, Becton-Dickson). Slight digital pressure was applied the lower abdomen to drain the urine.
(§3) The urinary bladders were instilled with either 150 ul of either saline or OVA alone, (1 mg/150 ul) infused at a slow rate to avoid trauma and vesico-ureteral reflux and repeated twice within a 30-min interval with the syringe kept in place on the catheter for at least 30 min. Intravesical challenge was repeated 7-10 days after the first one with the same procedure.
Treatment Group: 10 mice were treated with oral vitamin D3 analogue (1-alpha-fluoro-25-hydroxy-16,23Ediene-26,27-bishomo-20-epi-cholecalciferol) Compound “B” for 14 days (daily dose of either 30 or 75 ug/kg).
(§4) An ethanol stock solution of Compound B (1 mg/ml) was dissolved in Miglyol vehicle at the appropriate concentration. Control animals received the vehicle containing the same amount of ethanol. Drug (or vehicle) treatment was carried out by daily gavage after weighing the animal. Drug solution was prepared calculating a final volume of 100 ul/10 grams body weight, and treatment was started on the day of the first intravesical ovalbumin challenge, maintained daily, but discontinued over the weekends, for 12 days total treatment. FIG. 7 illustrates the timeline of the experiment.
(§5) Experiments in Example 7 were performed according to the general procedures described previously in Example 6. Mice were challenged with saline (untreated) or ovalbumin (treatment with vehicle or one of Compounds C-I at a dosage indicated in Table 6 in ug/kg).

Data set [2] can be described thus: Calcemia assessment in allergic IC mice (colorimetric serum calcium assay). On the set-up: serum calcium levels: dose or concentration left out as unconfirmed. It is filed as in vivo, mouse. On the procedure: Serum calcemia was evaluated by a commercially available colorimetric assay (Calcium Dry-Fast, Sentinel CH. Italy). Briefly, 10 ul serum were added to 100 ul reaction solution prepared according to the manufacturer's procedure in a 96-wells plate. After 5 min incubation at RT samples were read at 570 nm with a spectrophotometer and the calcium levels were calculated in triplicate by using a standard reference as directed.

In data set [3] the test system is ovalbumin-challenged mouse bladder. Put plainly: Blind histological analysis of bladder sections, allergic IC in mice. The data set is classed as in vivo. On the procedure: as §1, §2, §3, §4
Bladders were explanted from the animals, longitudinally divided in two moieties, one half was either immediately fixed in formalin (10% buffered) for at least 3 hrs or snap frozen in liquid nitrogen upon inclusion in OCT freezing medium (Tissue-Tek Sakura). For histological analysis, fixed bladders were further processed and finally paraffin embedded. Five um sections were serially cut then stained with GIEMSA (BDH, 20% solution, 3 hrs RT) and then de-stained in 0.1% acetic acid for 10 sec. After a clarification step in Xylene, slides were permanently mounted with Eukitt medium and analyzed by a pathologist in a blinded fashion in order to evaluate for inflammatory cell infiltrate, mast cell numbers, and the presence of interstitial edema. A semi-quantitative histological score was used, assigning: 1 for mild infiltrate, no edema; 2 for intermediate infiltration, little edema; and 3 for severe infiltration and edema.
as §5

The test system of data set [4] is allergen-induced chronic bladder inflammation. Put plainly: Efficacy ranking in the allergen-induced chronic bladder inflammation model of interstitial cystitis. The note with it: each compound at its tested dosage. It is filed as in vivo, mouse. On the procedure: as §5
Summarizing all the results presented above in Example 7, we can conclude that these compounds can be ranked with respect to their efficacy in reducing several parameters measuring inflammation of the bladder in the allergen-induced chronic bladder inflammation model of interstitial cystitis.

Data set [5] deals with rats with CYP-induced cystitis. Put plainly: Cystometry in rats with CYP induced chronic IC, Compound B. It is filed as in vivo, rat. The note with it: for # of NVBC / FP / MP / TP / amplitude of NVBC / Bl. Cap.: group value; for Bl. Cap.: unit from FIG. 5 legend. The source says: Wistar rats ([…] weighing 125-175 g, age 8 weeks) were used. Under general inhalation anesthesia with 2% isoflurane, polyethylene tubing (PE-50, Clay Adams, Parsippany, N.J.) with the end flared by heat was inserted into the dome of the bladder and secured in place with a 6-0 nylon purse string suture. The distal end of the tubing was sealed, tunneled subcutaneously and externalized through a small incision at the back of the neck. The tubing was then coiled and buried subcutaneously. Following recovery (5 days) subject animals underwent three intraperitoneal injections of CYP (Sigma Chemical, St. Louis, Mo.; 75 mg/kg each, intraperitoneal) over the period of nine days. […] Two weeks following the initiation of the treatment animals underwent a conscious cystometrogram to assess the function of the urinary bladder. […] An ethanol stock solution of Compound B (1 mg/ml) was dissolved in Miglyol vehicle at the appropriate concentration. Control animals received the vehicle containing the same amount of ethanol. Drug (or vehicle) treatment was carried out by daily gavage after weighing the animal. Drug solution was prepared calculating a final volume of 100 ul/10 grams body weight. Following two weeks of treatment, animals were placed unrestrained in a cage and the distal end of the catheter was extracted from the subcutaneous pouch and connected via T-tube to a pressure transducer (Grass® Model PT300, West Warwick, R.I.) and microinjection pump (Harvard Apparatus 22, South Natick, Mass.). Saline solution (0.9%, room temperature) was infused into the bladder at a rate of 10 ml/h. Intravesical pressure was recorded continuously using a Neurodata Acquisition System (Grass®, Astro-Med, West Warwick, R.I.). At a minimum, three reproducible micturition cycles were recorded. […] The post-void residual (PVR) was measured by aspirating the residual urine remaining in the bladder after the last micturition or draining the bladder by gravity. Bladder capacity (BC) was calculated as the sum of voided volume and PVR. The bladder was harvested and its weight was recorded following euthanasia.

The mark [6] stands for this setting: 30 ug/kg oral daily for 14 days.
The mark [7] stands for this setting: 75 ug/kg oral daily for 14 days.
The mark [8] stands for this setting: vs vehicle, not statistically significant.
Where [9] appears, read: 75 ug/kg oral vs vehicle, p<0.05.
Where [10] appears, read: 75 ug/kg oral vs vehicle, p<0.01.

Consider `CC(=O)OC1C/C(=C/C=C2\CCC[C@]3(C)C(C(C)C/C=C\C(O)(C(F)(F)F)C(F)(F)F)=CCC23)C[C@@H](OC(C)=O)C1` (stereo partly shown) [Compound A, 1,3-Di-O-acetyl-1,25-dihydroxy-16,23Z-diene-26,27-hexafluoro-19-nor-cholecalciferol], for which the “serum level of the MMCP1 protein” value in data set [1] (ovalbumin challenged vs vehicle, oral ug/kg: A 0.1, E 0.3, F 30, F p<0.05, A, E p<0.001) is “statistically significant reduction”. Moreover, in data set [2] (oral ug/kg: C 3, A 0.1, E 0.3, F 30, G 100, H 1, I 3, elevations p<0.001), the “serum calcium levels relative to the vehicle treated control group” value is “no significant increase”. The “numbers of eosinophils in the bladder wall” value in data set [3] (0.1 ug/kg oral vs vehicle, p<0.05) was “significantly reduced numbers”. Further, the “Efficacy ranking in reducing parameters of bladder inflammation” value in data set [4] is recorded as “Compound E>Compound F>Compound B>Compound H>Compound I>Compound A>Compound A=Compound G”.

Regarding `C=C1/C(=C\C=C2/CCC[C@]3(C)C([C@@H](C)C/C=C/C(O)(CC)CC)=CC[C@@H]23)C[C@@H](O)C[C@@H]1F` [Compound B, 1-alpha-fluoro-25-hydroxy-16,23E-diene-26,27-bishomo-20-epi-cholecalciferol], in data set [5] (setting [6]), the “# of NVBC” value is 11.7, the FP is 23.3 cm H2O, the MP is 79.3 cm H2O and the TP came to 29.3 cm H2O. For the same compound, in data set [5] (setting [6]), the “amplitude of NVBC” value is on record as 16.6 and the “Bl. Cap.” value was 2.0 mL. Also, in data set [5] (setting [7]), the “# of NVBC” value came out at 8.3, the FP was found to be 26.1 cm H2O, the MP came to 90.5 cm H2O and the TP worked out at 36.3 cm H2O. For the same compound, in data set [5] (setting [7]), the “amplitude of NVBC” value amounted to 13.6 and the “Bl. Cap.” value amounted to 2.1 mL. The “frequency of non-voiding bladder contractions” value in data set [5] (both dosage levels (30 ug/kg, p<0.01; 75 ug/kg, p<0.005) vs vehicle) is recorded as “significantly reduced”. Further, in data set [5] (both dosage levels (30 ug/kg, p<0.01; 75 ug/kg, p<0.01) vs vehicle), the bladder capacity result is recorded as “increased”. For the same compound, the “amplitude of non-voiding bladder contractions” value in data set [5] (higher dose level (75 ug/kg), not statistically significant) is reported as “reduced”. In data set [5] (setting [8]), the filling pressure entry was “Marginal increase” and the threshold pressure entry is recorded as “Marginal increase”. Also, the “serum levels of chymase MMCP1 protein” value in data set [1] (setting [9]) was “significantly lower”. The serum calcium level result in data set [2] (setting [9]) is “small, but statistically significant increase”. The “calcemic levels relative to the toxicity threshold” value in data set [2] (75 ug/kg oral, toxicity threshold 10.7 mg/dl in mice) was “did not cause calcemic levels to rise above the toxicity threshold”. In addition, in data set [2] (lower dosage, not shown), the serum calcium levels result is reported as “No significant changes”. In addition, the “edema in bladder sections” value in data set [3] (75 ug/kg oral vs vehicle, p<0.001) is listed as “completely resolved”. Also, in data set [3] (setting [10]), the “eosinophils in bladder sections” value is listed as “significant reduction” and the “lymphocytes in bladder sections” value was “significant reduction”. For the same compound, the “mast cells in bladder sections” value in data set [3] (setting [9]) was “significant reduction”. In addition, the “signs of edema in representative bladder slides” value in data set [3] (75 ug/kg oral, FIG. 16, x50 magnification) was “no signs of edema”. Further, the “Efficacy ranking in reducing parameters of bladder inflammation” value in data set [4] was “Compound E>Compound F>Compound B>Compound H>Compound I>Compound A>Compound A=Compound G”.
